Key:
[1] = system: TAP deficient RMA-S targets; format: cell-based, mouse; conditions: ConA-activated CTL, 10 μM overnight
C57BL6 mice = format: in vivo, mouse; conditions: 40 μg immunogen in IFA plus CpG adjuvant; spleen cells restimulated 7 days with peptide epitope; RMA-S targets, FIGS. 11A-11C
[2] = system: TAP-competent cells expressing H-2K^b (L-K^b); experiment: Immunofluorescence and confocal microscopy of H-2K^b/OVA257 complexes, TAP-competent cells; format: cell-based, mouse; conditions: 25D1.16 staining
Procedure: (§1) T2/K^b or L-K^b cells were cultured overnight on poly-lysine treated glass coverslips. The culture medium was discarded, and the cells were gently washed with PBS. The cells were pre-incubated with serum-free AIM-V medium at 37° C. for 30 minutes and then incubated with peptide/TA solutions at the indicated concentrations for 12 hour at 37° C. After peptide loading, the cells were washed and fixed with 2% formaldehyde for 20 minutes at room temperature. For indirect immunofluorescence, fixed cell monolayers were permeabilized with 0.2% Triton X100 in PBS and incubated with PBS containing 5% goat serum to block non-specific protein binding sites. The cells were double-labeled with mouse monoclonal antibody 25D1.16 specific to OVA257/H-2K^b complex and rabbit polyclonal antibody TGN38 (TGN marker) or rabbit anti-calreticulin (ER marker), followed by 1 hour staining with FITC anti-mIgG and TR anti-rIgG as secondary antibodies. After washing, the coverslips were mounted for observation on glass slides using the Prolong Antifade Kit. The stained cells were examined and photographed with a Leica TCS-SL confocal laser-scanning microscope (Bensheim, Germany).
Utilizing the monoclonal antibody 25D1.16 that specifically reacts with H-2K^b/OVA257 complexes and confocal microscopy, the formation and presence of this CTL epitope in permeabilized TAP-competent and TAP-deficient cells expressing H-2K^b was evaluated. […] These cells were also stained with an antibody specific for calreticulin which is localized within the ER.

[3] = system: TAP-deficient cells (T2/K^b); experiment: Immunofluorescence and confocal microscopy of H-2K^b/OVA257 complexes, T2/K^b cells; format: cell-based, human
Procedure: as §1
An antibody specific for trans-Golgi network (TGN38) was used to test whether H-2K^b/OVA257 complexes could also be detected in the trans-Golgi network of cells incubated with TA peptides. […] In these cells, antibody TGN38 stained brightly a structure corresponding to the trans-Golgi. […] These observations reinforce the findings that TA peptides need to penetrate cells in order to create MHC class I/peptide complexes. In addition, these complexes are observed in both the ER and trans-Golgi, even in TAP-deficient cells.

TAP-competent EL-4 cells = experiment: Flow cytometry of surface H-2K^b/OVA257 complexes (25D1.16) with protease inhibitors, EL-4 cells; format: cell-based, mouse; conditions: decRVKR-CMK 60 μM, antigen 10 μM overnight, FIGS. 8A-8C
Procedure: (§2) The effects of protease inhibitors on antigen processing and presentation were evaluated by analysis of 25D1.16 staining on different antigen-pulsed EL-4 or T2/K^b cells using flow cytometric analysis. In brief, EL-4 or T2/K^b cells were washed twice with serum-free AIM-V medium (Life Technologies, Rockville, Md.), pre-treated with protease inhibitors (10 μM lactacycstin, 100 μM pepstatin or 60 μM decRVKR-CMK) for 30 minutes and then pulsed with equimolar concentrations of different (as indicated) peptides at 37° C. overnight with the continuous presence of the corresponding protease inhibitors. The serum-free AIM-V medium was used in order to exclude the potential involvement of serum proteases during the peptide-pulsing process. After washing the cells twice with FACS buffer (PBS (phosphate buffered saline) supplemented with 2% FBS and 0.2% sodium azide), peptide-loaded APC were stained with 25D1.16 antibody followed by FITC anti-mIgG for flow analysis. Untreated EL-4 and T2/K^b cells were pulsed with peptides and stained as controls.

[4] = system: TAP-deficient T2/K^b cells; experiment: Flow cytometry of surface H-2K^b/OVA257 complexes (25D1.16) with protease inhibitors, T2/K^b cells; format: cell-based, human; conditions: decRVKR-CMK 60 μM, antigen 10 μM overnight, FIGS. 8D-8F
Procedure: as §2
The data described above indicate that TA can be processed in various cellular compartments to produce small peptide epitopes that subsequently associate with MHC class I molecules and the resulting peptide-MHC class I complexes are then transported to the cell surface. Antigen processing could take place: (1) in the cytoplasm, via proteasomal degradation followed by TAP transport; (2) within the ER, where peptide trimming via an aminopeptidase could occur; (3) in the trans-Golgi, where processing of antigens through proteases such as furin can occur; and/or (4) in early endocytic compartments, where peptides that could either bind to recycling MHC class I molecules or leak into other compartments of the MHC class I pathway can be generated. Utilizing antibody 25D1.16, we studied the effects of various inhibitors of antigen processing in the formation of H-2K^b/OVA257 surface complexes by peptides OVA257-HIVtat and HIVtat-OVA257.

RMA-S cells = experiment: Flow cytometry of surface H-2K^b/OVA257 complexes on RMA-S cells with or without furin inhibitor; format: cell-based; conditions: 18 hours, 25D1.16 antibody, FIG. 13
Procedure: Aliquots of RMA-S cells were cultured without or with the furin inhibitor decRVKR-CMK (60 μM) at 37° C. After one hour of culture, 4 multiple epitope-containing TA (TA3-A, TA3-B, TA3-C, and TA3-D) or OVA257 were each added to separate cultures, which were then incubated for a further 18 hours. The cells were then harvested and the relative amounts of H-2K^b/OVA257 complexes expressed on the surfaces of the cells were assessed by fluorescence flow cytometry using the 25D1.16 antibody (FIG. 13). […] These findings underscore the importance of furin in processing of antigens to generate peptide epitopes that bind to MHC class I molecules and are then recognized by appropriate peptide epitope-specific CTL.

[5] = system: Murine dendritic cells (DC); experiment: Persistence in dendritic cells: IFN-γ ELISA of OT-1 CTL cultured with pulsed DC; format: cell-based, mouse; conditions: DC pulsed 10 μM 2 hours, washed, further 48 hours, CTL:DC 10:1 for 24 hours, FIG. 14
Procedure: Murine dendritic cells (DC) were prepared by culturing C57BL6 mouse (H-2^b) bone marrow […] in the presence of granulocyte macrophage colony stimulating factor (GM-CSF) and interleukin-4 (IL-4) by a method essentially the same as that described by Son et al. [(2002) J. Immunol. Meth. 262:145-157] except that non-adherent cells are removed from the cultures and discarded on day 2 of culture and no density gradient centrifugation step was used. Cells not adhering to the plastic tissue culture vessel at day 6 of culture were harvested and used as DC.
DC were pulsed with either the TA HIVtat-OVA257 (see Table 2) or the peptide epitope OVA257, each at a concentration of 10 μM, for 2 hours at 37° C. The cells were then washed free of the TA or peptide epitope and incubated for a further 48 hours. They were then cultured with cells of the OT-1 CTL clone (specific for H-2K^b/OVA257) at a CTL to DC ratio of 10:1 for 24 hours. Supernatants were then removed from the cultures and the relative amounts of IFN-γ in various dilutions of each supernatant were measured by ELISA (FIG. 14). […] These findings indicate that a peptide epitope persists in DC for a longer period of time when taken up by DC in the form of a TA than when taken up by DC in the form of the peptide epitope per se.

## IKAVYNFATCGRVKRSIYRYYGLRVKRSIINFEKLAAARKKRRQRRR [TA3-A]
[1]; FIG. 9 left panel
  sensitization of targets for killing by OVA257-specific CTL: could effectively kill targets sensitized
[1]; FIG. 9 middle panel
  sensitization of targets for killing by 2C-specific CTL: could effectively kill targets sensitized
C57BL6 mice
  induction of CTL responses by in vivo vaccination: at least as effective as the peptide mixture

## SIINFEKL [OVA257, reference compound]
[2]
  presence of H-2K^b/OVA257 complexes in permeabilized cells: abundant
[3]; 25D1.16 staining
  location of H-2K^b/OVA257 complexes on the cell-surface: most of the H-2K^b/OVA257 complexes were on the cell-surface
[3]; 25D1.16 superimposed with TGN38 staining
  localization of H-2K^b/OVA257 complexes to the trans-Golgi: no localization to the trans-Golgi
TAP-competent EL-4 cells
  effect of furin inhibitor decRVKR-CMK on expression of surface H-2K^b/OVA257 complexes (decrease): no effect was observed
[4]
  effect of furin inhibitor decRVKR-CMK on expression of surface H-2K^b/OVA257 complexes (decrease): no effect was observed
RMA-S cells
  cell-surface H-2K^b/OVA257 complexes after exposure of cells: detectable levels
[5]
  IFN-γ produced by OT-1 CTL cultured with pulsed DC: insignificant levels of IFN-γ

Source: patent US8822182B2, “Chimeric antigen-specific T cell-activating polypeptides” (Mayo Foundation for Medical Education and Research, priority 2001, dated 2014)
